Laboratory results reported in PubChem BioAssay (NCI).
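48-hour exposure; five concentrations; linearly interpolated endpoints. GI50 marks 50% less growth. TGI marks complete inhibition of growth.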

Tests used:
Test in all cases: NCI anticancer screen, dose series, 48 h
MALME-3M melanoma = system: MALME-3M melanoma
MDA-MB-231 breast = system: MDA-MB-231 breast
U251 CNS = system: U251 CNS
K-562 leukemia = system: K-562 leukemia
T-47D breast = system: T-47D breast
IGROV1 ovarian = system: IGROV1 ovarian
EKVX NSCLC = system: EKVX NSCLC
HCC-2998 colon = system: HCC-2998 colon
ACHN renal = system: ACHN renal
CAKI-1 renal = system: CAKI-1 renal
HOP-92 NSCLC = system: HOP-92 NSCLC
786-0 renal = system: 786-0 renal
SNB-19 CNS = system: SNB-19 CNS
HL-60(TB) leukemia = system: HL-60(TB) leukemia
SF-268 CNS = system: SF-268 CNS
OVCAR-3 ovarian = system: OVCAR-3 ovarian
NCI-H226 lung = system: NCI-H226 lung
TK-10 renal = system: TK-10 renal
RPMI-8226 leukemia = system: RPMI-8226 leukemia
NCI-H460 lung = system: NCI-H460 lung
A498 renal = system: A498 renal
DU-145 prostate = system: DU-145 prostate
MOLT-4 leukemia = system: MOLT-4 leukemia
UACC-62 melanoma = system: UACC-62 melanoma
HS 578T breast = system: HS 578T breast
SF-295 CNS = system: SF-295 CNS
SK-MEL-5 melanoma = system: SK-MEL-5 melanoma
HT29 colon = system: HT29 colon
PC-3 prostate = system: PC-3 prostate
NCI/ADR-RES ovarian = system: NCI/ADR-RES ovarian
BT-549 breast = system: BT-549 breast
COLO 205 colon = system: COLO 205 colon
A549 NSCLC = system: A549 NSCLC
LOX IMVI melanoma = system: LOX IMVI melanoma
SK-OV-3 ovarian = system: SK-OV-3 ovarian
CCRF-CEM leukemia = system: CCRF-CEM leukemia
SW-620 colon = system: SW-620 colon
KM12 colon = system: KM12 colon
M14 melanoma = system: M14 melanoma
HCT-15 colon = system: HCT-15 colon
HCT-116 colon = system: HCT-116 colon
SF-539 CNS = system: SF-539 CNS
NCI-H23 lung = system: NCI-H23 lung
MCF7 breast = system: MCF7 breast
OVCAR-4 ovarian = system: OVCAR-4 ovarian
SNB-75 CNS = system: SNB-75 CNS
SN12C renal = system: SN12C renal
OVCAR-5 ovarian = system: OVCAR-5 ovarian
SK-MEL-28 melanoma = system: SK-MEL-28 melanoma
HOP-62 NSCLC = system: HOP-62 NSCLC
MDA-MB-435 = system: MDA-MB-435
UO-31 renal = system: UO-31 renal
SK-MEL-2 melanoma = system: SK-MEL-2 melanoma
RXF 393 renal = system: RXF 393 renal
UACC-257 melanoma = system: UACC-257 melanoma

## Cc1ccc(NCCN2CCCCC2)c2c(=O)c3ccccc3sc12
MALME-3M melanoma
  GI50: 1.19 µM
  TGI: 2.55 µM
MDA-MB-231 breast
  GI50: 2.12 µM
  TGI: 4.77 µM
U251 CNS
  GI50: 2.61 µM
  TGI: 7.9 µM
K-562 leukemia
  GI50: 1.64 µM
  TGI: 3.52 µM
T-47D breast
  GI50: 2.02 µM
  TGI: 6 µM
IGROV1 ovarian
  GI50: 1.48 µM
  TGI: 4.3 µM
EKVX NSCLC
  GI50: 2.77 µM
  TGI: 13.1 µM
HCC-2998 colon
  GI50: 2.16 µM
  TGI: 3.67 µM
ACHN renal
  GI50: 2.68 µM
  TGI: 7.47 µM
CAKI-1 renal
  GI50: 0.278 µM
  TGI: 2.43 µM
HOP-92 NSCLC
  GI50: 1.88 µM
  TGI: 7.56 µM
786-0 renal
  GI50: 1.63 µM
  TGI: 3.61 µM
SNB-19 CNS
  GI50: 2.8 µM
  TGI: 13.1 µM
HL-60(TB) leukemia
  GI50: 1.66 µM
  TGI: 3.6 µM
SF-268 CNS
  GI50: 5.33 µM
  TGI: 18.7 µM
OVCAR-3 ovarian
  GI50: 4.75 µM
  TGI: 17.6 µM
NCI-H226 lung
  GI50: 2.24 µM
  TGI: 4.96 µM
TK-10 renal
  GI50: 2 µM
  TGI: 5.82 µM
RPMI-8226 leukemia
  GI50: 1.49 µM
  TGI: 3.42 µM
NCI-H460 lung
  GI50: 1.89 µM
  TGI: 3.88 µM
A498 renal
  GI50: 1.91 µM
  TGI: 3.64 µM
DU-145 prostate
  GI50: 3.76 µM
  TGI: 14.4 µM
MOLT-4 leukemia
  GI50: 1.99 µM
  TGI: 4.91 µM
UACC-62 melanoma
  GI50: 1.92 µM
  TGI: 3.77 µM
HS 578T breast
  GI50: 2.03 µM
  TGI: 5.17 µM
SF-295 CNS
  GI50: 1.63 µM
  TGI: 3.73 µM
SK-MEL-5 melanoma
  GI50: 1.62 µM
  TGI: 3 µM
HT29 colon
  GI50: 1.97 µM
  TGI: 4.72 µM
PC-3 prostate
  GI50: 2.14 µM
  TGI: 7.49 µM
NCI/ADR-RES ovarian
  GI50: 2.45 µM
  TGI: 6.78 µM
BT-549 breast
  GI50: 2.43 µM
  TGI: 9.59 µM
COLO 205 colon
  GI50: 1.45 µM
  TGI: 2.85 µM
A549 NSCLC
  GI50: 1.42 µM
  TGI: 2.97 µM
LOX IMVI melanoma
  GI50: 1.78 µM
  TGI: 3.68 µM
SK-OV-3 ovarian
  GI50: 2.04 µM
  TGI: 6.03 µM
CCRF-CEM leukemia
  GI50: 2.38 µM
  TGI: 6.92 µM
SW-620 colon
  GI50: 1.96 µM
  TGI: 4.01 µM
KM12 colon
  GI50: 3.81 µM
  TGI: 14.4 µM
M14 melanoma
  GI50: 1.61 µM
  TGI: 2.97 µM
HCT-15 colon
  GI50: 3.17 µM
  TGI: 10.8 µM
HCT-116 colon
  GI50: 1.68 µM
  TGI: 3.17 µM
SF-539 CNS
  GI50: 1.97 µM
  TGI: 5.98 µM
NCI-H23 lung
  GI50: 2.25 µM
  TGI: 5.77 µM
MCF7 breast
  GI50: 1.56 µM
  TGI: 3.55 µM
OVCAR-4 ovarian
  GI50: 5.57 µM
  TGI: 18.1 µM
SNB-75 CNS
  GI50: 2.61 µM
  TGI: 8.09 µM
SN12C renal
  GI50: 4.35 µM
  TGI: 17.6 µM
OVCAR-5 ovarian
  GI50: 1.97 µM
  TGI: 3.64 µM
SK-MEL-28 melanoma
  GI50: 2.43 µM
  TGI: 4.16 µM
HOP-62 NSCLC
  GI50: 1.55 µM
  TGI: 3.07 µM
MDA-MB-435
  GI50: 1.78 µM
  TGI: 3.73 µM

## CCN(CC)CCNC(=O)c1cn2ncnc(Oc3ccc(NC(=O)Nc4ccc(Cl)c(C(F)(F)F)c4)cc3)c2c1C
MALME-3M melanoma
  GI50: 1.29 µM
  TGI: 2.84 µM
MDA-MB-231 breast
  GI50: 1.87 µM
  TGI: 3.52 µM
K-562 leukemia
  GI50: 0.383 µM
  TGI: 1.65 µM
T-47D breast
  GI50: 1.8 µM
  TGI: 4.42 µM
IGROV1 ovarian
  GI50: 1.69 µM
  TGI: 3.24 µM
EKVX NSCLC
  GI50: 1.69 µM
  TGI: 3.12 µM
HCC-2998 colon
  GI50: 2.24 µM
  TGI: 3.92 µM
ACHN renal
  GI50: 1.73 µM
  TGI: 3.1 µM
CAKI-1 renal
  GI50: 1.67 µM
  TGI: 3.07 µM
HOP-92 NSCLC
  GI50: 1.19 µM
  TGI: 2.69 µM
SNB-19 CNS
  GI50: 1.86 µM
  TGI: 3.27 µM
SF-268 CNS
  GI50: 1.59 µM
  TGI: 3.14 µM
OVCAR-3 ovarian
  GI50: 1.93 µM
  TGI: 3.51 µM
NCI-H226 lung
  GI50: 1.76 µM
  TGI: 3.89 µM
UO-31 renal
  GI50: 1.72 µM
  TGI: 3.15 µM
TK-10 renal
  GI50: 2.11 µM
  TGI: 3.92 µM
NCI-H460 lung
  GI50: 1.72 µM
  TGI: 3.32 µM
A498 renal
  GI50: 1.39 µM
  TGI: 2.74 µM
DU-145 prostate
  GI50: 1.69 µM
  TGI: 3.1 µM
MOLT-4 leukemia
  GI50: 0.738 µM
  TGI: 2.4 µM
UACC-62 melanoma
  GI50: 1.81 µM
  TGI: 3.43 µM
HS 578T breast
  GI50: 1.49 µM
  TGI: 3.92 µM
SF-295 CNS
  GI50: 1.8 µM
  TGI: 3.33 µM
SK-MEL-5 melanoma
  GI50: 1.76 µM
  TGI: 3.22 µM
PC-3 prostate
  GI50: 1.31 µM
  TGI: 2.8 µM
NCI/ADR-RES ovarian
  GI50: 1.98 µM
  TGI: 3.82 µM
BT-549 breast
  GI50: 1.61 µM
  TGI: 3.09 µM
SK-MEL-2 melanoma
  GI50: 1.97 µM
  TGI: 4.15 µM
COLO 205 colon
  GI50: 1.78 µM
  TGI: 3.56 µM
LOX IMVI melanoma
  GI50: 1.36 µM
  TGI: 2.82 µM
SK-OV-3 ovarian
  GI50: 1.85 µM
  TGI: 3.46 µM
SW-620 colon
  GI50: 2.23 µM
  TGI: 3.96 µM
KM12 colon
  GI50: 1.69 µM
  TGI: 3.25 µM
RXF 393 renal
  GI50: 1.49 µM
  TGI: 3.02 µM
HCT-15 colon
  GI50: 1.62 µM
  TGI: 3.1 µM
SF-539 CNS
  GI50: 1.1 µM
  TGI: 2.32 µM
NCI-H23 lung
  GI50: 1.8 µM
  TGI: 3.49 µM
MCF7 breast
  GI50: 1.22 µM
  TGI: 2.77 µM
OVCAR-4 ovarian
  GI50: 1.79 µM
  TGI: 3.42 µM
UACC-257 melanoma
  GI50: 1.63 µM
  TGI: 3.42 µM
SNB-75 CNS
  GI50: 0.0645 µM
  TGI: 1.52 µM
SN12C renal
  GI50: 1.6 µM
  TGI: 3.14 µM
OVCAR-5 ovarian
  GI50: 1.99 µM
  TGI: 3.48 µM
SK-MEL-28 melanoma
  GI50: 1.48 µM
  TGI: 2.8 µM
HOP-62 NSCLC
  GI50: 1.76 µM
  TGI: 3.56 µM
MDA-MB-435
  GI50: 1.63 µM
  TGI: 3 µM
